Source: patent US12433882B2, “Treatments for amyotrophic lateral sclerosis using dazucorilant” (Corcept Therapeutics Incorporated, priority 2022, dated 2025)
Entries after “also recorded” stand apart in the source; their conditions may differ.

Assays:
GR = target: T1, GR (Homo sapiens, UniProt P04150); assay: GR binding (competitive, reversible); settings: read-out: affinity for GR
T1 sequence (P04150 1-777): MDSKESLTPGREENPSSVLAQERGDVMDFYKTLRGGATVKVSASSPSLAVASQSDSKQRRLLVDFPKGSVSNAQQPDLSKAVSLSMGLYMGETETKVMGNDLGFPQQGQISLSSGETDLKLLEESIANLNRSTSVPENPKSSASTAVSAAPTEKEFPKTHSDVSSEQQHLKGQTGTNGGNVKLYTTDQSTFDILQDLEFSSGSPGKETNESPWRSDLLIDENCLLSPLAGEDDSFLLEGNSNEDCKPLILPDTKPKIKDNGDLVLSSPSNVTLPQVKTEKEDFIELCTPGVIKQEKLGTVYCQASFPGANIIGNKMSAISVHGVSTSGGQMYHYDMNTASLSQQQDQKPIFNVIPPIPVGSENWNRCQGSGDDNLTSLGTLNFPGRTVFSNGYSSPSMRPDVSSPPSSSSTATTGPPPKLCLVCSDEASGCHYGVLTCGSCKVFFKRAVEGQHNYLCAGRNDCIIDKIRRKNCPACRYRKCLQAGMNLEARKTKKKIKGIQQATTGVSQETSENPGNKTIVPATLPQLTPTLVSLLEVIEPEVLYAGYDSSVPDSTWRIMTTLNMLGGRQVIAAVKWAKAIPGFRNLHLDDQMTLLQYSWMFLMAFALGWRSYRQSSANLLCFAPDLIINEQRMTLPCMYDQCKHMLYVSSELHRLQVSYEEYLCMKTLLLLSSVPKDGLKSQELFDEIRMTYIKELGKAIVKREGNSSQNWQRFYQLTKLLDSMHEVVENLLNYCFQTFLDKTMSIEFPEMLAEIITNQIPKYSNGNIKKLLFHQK
Method: (§1) Dazucorilant is selective for GR over other nuclear hormone receptors, and a range of other receptors, enzymes, and ion channels. For example, dazucorilant has high selectivity for GR relative to the progesterone receptor (PR), androgen receptor, and estrogen receptor, showing no significant binding to these receptors at a concentration of 10 μM (0%, 1.5% and […], respectively).

estrogen receptor = assay: Estrogen receptor binding; settings: 10 μM
Method: as §1

androgen receptor = target: T2, androgen receptor (Homo sapiens, UniProt P10275); assay: Androgen receptor binding; settings: 10 μM
T2 sequence (P10275 1-920): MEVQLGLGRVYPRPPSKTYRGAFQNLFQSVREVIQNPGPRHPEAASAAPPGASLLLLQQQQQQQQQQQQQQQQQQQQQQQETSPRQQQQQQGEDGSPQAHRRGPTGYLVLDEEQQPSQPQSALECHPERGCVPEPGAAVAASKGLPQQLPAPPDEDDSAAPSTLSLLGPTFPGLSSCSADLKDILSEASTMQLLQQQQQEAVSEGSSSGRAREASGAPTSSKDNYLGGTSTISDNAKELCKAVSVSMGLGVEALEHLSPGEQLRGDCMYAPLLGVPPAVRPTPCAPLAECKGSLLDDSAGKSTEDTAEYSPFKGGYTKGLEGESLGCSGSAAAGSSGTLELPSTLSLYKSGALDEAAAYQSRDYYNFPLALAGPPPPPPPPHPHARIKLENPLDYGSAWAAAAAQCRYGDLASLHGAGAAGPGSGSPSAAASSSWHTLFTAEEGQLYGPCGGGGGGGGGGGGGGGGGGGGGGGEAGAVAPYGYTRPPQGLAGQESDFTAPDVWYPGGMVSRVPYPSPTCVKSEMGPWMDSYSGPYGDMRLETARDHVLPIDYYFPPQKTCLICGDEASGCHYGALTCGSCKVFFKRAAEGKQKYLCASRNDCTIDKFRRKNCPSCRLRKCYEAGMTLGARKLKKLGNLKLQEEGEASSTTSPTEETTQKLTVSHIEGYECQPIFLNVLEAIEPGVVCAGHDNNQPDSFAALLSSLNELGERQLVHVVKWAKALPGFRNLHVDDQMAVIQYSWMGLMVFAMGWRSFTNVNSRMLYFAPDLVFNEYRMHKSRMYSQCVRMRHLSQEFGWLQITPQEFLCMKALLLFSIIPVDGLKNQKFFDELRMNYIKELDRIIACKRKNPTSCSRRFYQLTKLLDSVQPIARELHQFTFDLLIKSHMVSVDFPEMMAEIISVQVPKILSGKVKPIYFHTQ

[1] = Brain penetration study, multiple oral dose PK in plasma and CSF; format: in vivo, human
Method: (§2) An adaptive dose, double-blind, placebo-controlled study (NCT04249323, EudraCT 2019-004258-27) was conducted in 110 healthy male and female volunteers (18-60 years old; BMI 18-30 kg/m2; weight≤102 kg; “First In Human” (FIH) study).

[2] = First In Human study Part 1, single ascending dose PK with or without food; settings: for AUC(0-inf)/D (adjusted geometric mean) / AUC(0-last)/D (adjusted geometric mean) / Cmax/D (adjusted geometric mean): single dose
Method: as §2
ANOVA model of natural log-transformed PK parameters from part 1 of the FIH study, including a term for treatment fitted as fixed effect. PK parameters normalized to the equivalent of a 1-mg dose. AUC, area under the curve; CI, confidence interval; Cmax, maximum concentration; D, dose.
ANOVA model of natural log-transformed PK parameters from part 1 of the FIH study, including a term for treatment fitted as fixed effect. CI, confidence interval; Cmax, maximum concentration; AUC, area under the curve.

Wobbler mouse = Wobbler mouse model of ALS; format: in vivo; settings: administration for 21 days
[3] = 2-fold dose escalation, 450 mg to 900 mg fed
[4] = 3-fold dose escalation, 150 mg to 450 mg fasted

With `O=C(c1ccccn1)[C@]12Cc3cnn(-c4ccc(F)cc4)c3C=C1CCN(S(=O)(=O)c1ccc(C(F)(F)F)cc1)C2` [dazucorilant, (R)-(1-(4-fluorophenyl)-6-((4-(trifluoromethyl)phenyl)sulfonyl)-4,4a, 5,6,7,8-hexahydro-1-H-pyrazolo[3,4-g]isoquinolin-4a-yl) (pyridin-2-yl)methanone] the Ki (GR) was 0.28 nM, the “binding to estrogen receptor” value (estrogen receptor) was 37.5% and the “binding to androgen receptor” value (androgen receptor) was 1.5%. For the same molecule, the “dose proportionality of exposures” value ([1]; 300 mg relative to 150 mg, daily for 14 days) was “greater than dose-proportional increase in dazucorilant exposures”, the “detection in the CSF” value ([1]; 1 week of QD dosing, 150 mg and 300 mg, fed) was “detectable in the CSF in all study participants” and the “time to steady state of exposure” value ([1]; QD dosing) was at most 1 week. The “distribution to the cerebrospinal fluid (CSF)” value ([1]; oral administration, healthy volunteers) was “distribution of dazucorilant is observed in the cerebrospinal fluid; also recorded: distribution to the CSF was observed”, the “steady state exposures (Cmax, AUC0-24), 300 vs. 150 mg” value ([1]; steady state, QD dosing) was “approximately 4 fold” and the “AUC(0-inf)/D (adjusted geometric mean)” value ([2]; 150 mg FASTED) was 2.18 ng·h/mL/mg. For the same molecule, the “AUC(0-last)/D (adjusted geometric mean)” value ([2]; 150 mg FASTED) was 1.69 ng·h/mL/mg, the “Cmax/D (adjusted geometric mean)” value ([2]; 150 mg FASTED) was 0.494 ng/mL/mg and the “exposure in fed vs fasted subjects” value ([2]; 300 mg with and without food, FIG. 1A/1B) was “Greater dazucorilant exposure was observed when dazucorilant was administered to fed subjects”. The “AUC(0-inf) Ratio Fed:Fasted” value ([2]; 450 mg) was 250.7%, the “AUC(0-last) Ratio Fed:Fasted” value ([2]; 450 mg) was 250.7% and the “Cmax Ratio Fed:Fasted” value ([2]; 450 mg) was 202.3%. The “AUC(0-inf) (adjusted geometric mean)” value ([2]; 450 mg FASTED) was 1290 ng·h/mL, the “AUC(0-last) (adjusted geometric mean)” value ([2]; 450 mg FASTED) was 1180 ng·h/mL and the “Cmax (adjusted geometric mean)” value ([2]; 450 mg FASTED) was 251 ng/mL. The “AUC(0-inf)/D (adjusted geometric mean)” value ([2]; 450 mg FASTED) was 2.86 ng·h/mL/mg, the “AUC(0-last)/D (adjusted geometric mean)” value ([2]; 450 mg FASTED) was 2.62 ng·h/mL/mg and the “Cmax/D (adjusted geometric mean)” value ([2]; 450 mg FASTED) was 0.557 ng/mL/mg. The “AUC(0-inf) (adjusted geometric mean)” value ([2]; 450 mg FED) was 3220 ng·h/mL, the “AUC(0-last) (adjusted geometric mean)” value ([2]; 450 mg FED) was 2950 ng·h/mL and the “Cmax (adjusted geometric mean)” value ([2]; 450 mg FED) was 508 ng/mL. For the same molecule, the “AUC(0-inf)/D (adjusted geometric mean)” value ([2]; 450 mg FED) was 7.17 ng·h/mL/mg, the “AUC(0-last)/D (adjusted geometric mean)” value ([2]; 450 mg FED) was 6.56 ng·h/mL/mg and the “Cmax/D (adjusted geometric mean)” value ([2]; 450 mg FED) was 1.13 ng/mL/mg. For the same molecule, the “AUC(0-inf)/D Ratio High:Low Dose” value ([2]; 450 mg vs 150 mg FASTED) was 131.3%, the “AUC(0-last)/D Ratio High:Low Dose” value ([2]; 450 mg vs 150 mg FASTED) was 155.2% and the “Cmax/D Ratio High:Low Dose” value ([2]; 450 mg vs 150 mg FASTED) was 112.9%. The “AUC(0-inf)/D (adjusted geometric mean)” value ([2]; 900 mg FED) was 10.2 ng·h/mL/mg, the “AUC(0-last)/D (adjusted geometric mean)” value ([2]; 900 mg FED) was 8.33 ng·h/mL/mg and the “Cmax/D (adjusted geometric mean)” value ([2]; 900 mg FED) was 1.23 ng/mL/mg. For the same molecule, the “AUC(0-inf)/D Ratio High:Low Dose” value ([2]; 900 mg vs 450 mg FED) was 42.3%, the “AUC(0-last)/D Ratio High:Low Dose” value ([2]; 900 mg vs 450 mg FED) was 127.0% and the “Cmax/D Ratio High:Low Dose” value ([2]; 900 mg vs 450 mg FED) was 109.2%. The “increase in AUC(0-inf) on dose escalation” value [2, 3] was 2.8 fold, the “increase in Cmax on dose escalation” value [2, 3] was 2.2 fold and the “increase in AUC(0-inf) on dose escalation” value [2, 4] was 4.0 fold. The “increase in Cmax on dose escalation” value [2, 4] was 3.4 fold, the “food effect, increase in exposure” value ([2]; high-fat breakfast vs fasting (Table 2, 450 mg)) was over 2 fold and the forepaw atrophy (Wobbler mouse) was “reducing forepaw atrophy”. The neurodegeneration and inflammation (Wobbler mouse) was “inhibiting neurodegeneration and inflammation” and the “performance in the rotarod test” value (Wobbler mouse) was “overcoming the impaired performance in the rotarod test”.
